Counter-ions that a name gives are not always drawn. Like-named read-outs stand apart in the source and are kept apart here.
How the values were obtained:
[1] = background statement, no test described; cited from earlier work
[2] = system: tetrabenazine-induced sedation and depression in mice; assay: Antagonism of tetrabenazine-induced depression in mice, orally; assay type: in vivo, female white mice (Carworth CF1 S); conditions: oral, 1 hr post drug, 30 minutes after tetrabenazine 32 mg/kg intraperitoneally, female mice; for ED50: Mus musculus, read-out: ED50 for prevention of ptosis
Procedure: Relief from ptosis was recorded when exactly two seconds after placing the mouse facing the observer, lid closure was less than 50% in both eyes.

[3] = system: tetrabenazine-induced sedation and depression in mice; assay: as above; assay type: in vivo, female white mice (Carworth CF1 S); conditions: oral, 1 hr post drug, 30 minutes after tetrabenazine 32 mg/kg intraperitoneally, female mice; for ED50: Mus musculus, read-out: ED50 for prevention of exploratory loss

Compound	side effects [1]	ED50 for prevention of ptosis [2]	ED50 for prevention of exploratory loss [3] [mg/kg]	ED50 [2] [mg/kg]	ED50 [3] [mg/kg]
CN(C)CCCN1c2ccccc2CCc2ccccc21 [Imipramine]	may cause blurred vision, dryness of mouth, constipation, urinary retention, orthostatic hypotension, respiration depression, myocardial infarction and congestive heart failure				
(±)7-(or: -8-)fluoro-1,2,3,4,4a,5,10,10a-octahydro-2-methyl-5,10-o-benzenobenz[g]isoquinoline hydrochloride [R=CH3, R1=H, R2=H, R3=7 or 8-F, R4=H]		2.0 mg/kg	2.7		
CC(=O)CCN1CCC2C3c4ccccc4C(c4ccccc43)C2C1 (racemic) [R=CH2 CH2 COCH3, R1=H, R2=H, R3=H, R4=H, (±)4-(1,2,3,4,4a,5,10,10a-Octahydro-5,10-o-benzenobenz[g]isoquinoline-2-yl)-2-butanone Maleate]				2.1	4.4
(±)1,2,3,4,4a,5,10,10a-octahydro-7-(or: -8-)methyl-5,10-o-benzenobenz[g]isoquinoline hydrochloride [R=H, R1=H, R2=H, R3=7 or 8-CH3, R4=H]		.94 mg/kg	4.8		
c1ccc(C(CN2CCC3C4c5ccccc5C(c5ccccc54)C3C2)c2ccccc2)cc1 (racemic) [R=CH2 CH(C6 H5)2, R1=H, R2=H, R3=H, R4=H, (±)1,2,3,4,4a,5,10,10a-octahydro-2-(2,2-diphenylethyl)-5,10-o-benzenobenz[g]isoquinoline hydrochloride]				12	47
(±)6-(or: -9-)-chloro-1,2,3,4,4a,5,10,10a-octahydro-2-methyl-5,10-o-benzenobenz[g]isoquinoline hydrochloride [R=CH3, R1=H, R2=H, R3=6 or 9-Cl, R4=H]		1.3 mg/kg	1.4		
CCOC(=O)N1CCC2C3c4ccccc4C(c4ccccc43)C2C1 (racemic) [R=COOC2 H5, R1=H, R2=H, R3=H, R4=H, (±)1,2,3,4,4a,5,10,10a-Octahydro-5,10-o-benzenobenz[g]isoquinoline-2-carboxylic Acid, Ethyl Ester]				2.1	5.4
c1ccc2c(c1)C1c3ccccc3C2C2CNCCC12 (racemic) [R=H, R1=H, R2=H, R3=H, R4=H, (±)1,2,3,4,4a,5,10,10a-Octahydro-5,10-o-benzenobenz[g]isoquinoline Hydrochloride]				0.41	1.5
CCCCN1CCC2C3c4ccccc4C(c4ccccc43)C2C1 (racemic) [(±)2-(1-butyl)-1,2,3,4,4a,5,10,10a-Octahydro-5,10-o-benzenobenz[g]isoquinoline Maleate]				11.2	19
(±)2-(1-adamantylmethyl)-1,2,3,4,4a,5,10,10a-octahydro-5,10-o-benzenobenz[g]isoquinoline, hydrochloride hemihydrate [R=1-adamantyl, R1=H, R2=H, R3=H, R4=H]		24 mg/kg	41		
c1ccc(CCN2CCC3C4c5ccccc5C(c5ccccc54)C3C2)cc1 (racemic) [R=CH2 CH2 C6 H5, R1=H, R2=H, R3=H, R4=H, (±)1,2,3,4,4a,5,10,10a-octahydro-2-phenethyl-5,10-o-benzenobenz[g]isoquinoline, hydrochloride hemihydrate]				11.8	13.6
(±)7-(or: -8-)chloro-1,2,3,4,4a,5,10,10a-octahydro-2-methyl-5,10-o-benzenobenz[g]isoquinoline hydrochloride hemihydrate [R=CH3, R1=H, R2=H, R3=7 or 8-Cl, R4=H]		3.4 mg/kg	4.5		
O=C(O)CCN1CCC2C3c4ccccc4C(c4ccccc43)C2C1 (racemic) [R=CH2 CH2 COOH, R1=H, R2=H, R3=H, R4=H, (±)1,2,3,4,4a,5,10,10a-Octahydro-5,10-o-benzenobenz[g]isoquinoline-2-propionic Acid Hydrochloride]				15	27
CC(O)CCN1CCC2C3c4ccccc4C(c4ccccc43)C2C1 (centres unmarked)				4.9	5.6
(±)1,2,3,4,4a,5,10,10a-octahydro-5-(or: -10)-methyl-5,10-o-benzobenz[g]isoquinoline hydrochloride [R=H, R1=CH3 (H), R2=H(CH3), R3=H, R4=H]		22 mg/kg	38		
(±)7-(or: -8-)-fluoro-1,2,3,4,4a,5,10,10a-octahydro-5,10-o-benzenobenz[g]isoquinoline hydrochloride [R=H, R1=H, R2=H, R3=7 or 8-F, R4=H]		.58 mg/kg	1.7		
CN1CCC2C3c4ccccc4C(c4ccccc43)C2C1 (racemic) [R=CH3, R1=H, R2=H, R3=H, R4=H, (±)1,2,3,4,4a,5,10,10a-Octrahydro-2-methyl-5,10-o-benzenobenz[g]isoquinoline Hydrochloride]				1	6
CCOC(=O)CCN1CCC2C3c4ccccc4C(c4ccccc43)C2C1 (racemic) [(±)1,2,3,4,4a,5,10,10a-octahydro-5,10-o-benzenobenz[g]isoquinoline-2-propionic acid ethyl ester]				8.1	20
(±)7-(or: -8-)-chloro-1,2,3,4,4a,5,10,10a-octahydro-5,10-o-benzenobenz[g]isoquinoline hydrochloride [R=H, R1=H, R2=H, R3=7 or 8-Cl, R4=H]		1.4 mg/kg	1.7		
(±)6,10-dichloro-1,2,3,4,4a,5,10,10a-octahydro-2-methyl-5,10-o-benzenobenz[g]isoquinoline hydrochloride [R=CH3, R1=H, R2=H, R3=6-Cl, R4=10-Cl]		12.2 mg/kg	22		
(±)6-(or: -9-)chloro-1,2,3,4,4a,10,10a-octahydro-5,10-o-benzenobenz[g]isoquinoline hydrochloride [R=H, R1=H, R2=H, R3=6 or 9-Cl, R4=H]		2.2 mg/kg	2.5		
c1ccc(OCCN2CCC3C4c5ccccc5C(c5ccccc54)C3C2)cc1 (centres unmarked)				10.8	27
CN(C)CCC=C1c2ccccc2CCc2ccccc21 [Amitriptyline, reference compound]				1	1.2
(±)1,2,3,4,4a,-5,10,10a-octahydro-2,5-dimethyl-5,10-o-benzenobenz[g]isoquinoline or (±)1,2,3,4,4a,5,10,10a-octahydro-2,10-dimethyl-5,10-o-benzenobenz[g]isoquinoline [R=CH3, R1=CH3 (H), R2=H(CH3), R3=H, R4=H]		21 mg/kg	27		
